The numbers were not newly measured in US4833164A (E. I. Du Pont de Nemours and Company, priority 1986, dated 1989), which cites them from elsewhere.

Molecules are shown by their SMILES.

The data set deals with lipoxygenase. The settings on record: Nakadate et al.; Van Wauwe and Goossens; Panganamala et al.

With `Oc1cccc2ccccc12` [Example 1-naphthol, 1-naphthol], the “lipoxygenase inhibitor (literature)” value is “lipoxygenase inhibitor”.
